Data published in ChEMBL document CHEMBL1201862, “PubChem BioAssay data set” (2004).
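Each compound was tested at five concentrations against cells in 96-well plates for 48 hours. GI50: concentration for 50% inhibition of growth.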 The source made the active and inactive calls. Cut-off read from the data, not from the text of the source: active = GI50 up to about 1.1 µM and inactive = higher.

What was measured:
Assay in all cases: DTP human tumour cell line panel, 48 h
[1] = system: NCI-H460
[2] = system: TK-10
[3] = system: OVCAR-8
[4] = system: LOX IMVI
[5] = system: K562
[6] = system: SK-MEL-2
[7] = system: IGROV-1
[8] = system: M14
[9] = system: SR
[10] = system: OVCAR-4
[11] = system: SF-539
[12] = system: NCI-H23
[13] = system: UACC-62
[14] = system: MOLT-4
[15] = system: HCT-116
[16] = system: CAKI-1
[17] = system: MCF7
[18] = system: MDA-MB-435
[19] = system: DU-145
[20] = system: MDA-MB-231

Row | Structure (SMILES) | GI50 [1] | GI50 [2] | GI50 [3] | GI50 [4] | GI50 [5] | GI50 [6] | GI50 [7] | GI50 [8] | GI50 [9] | GI50 [10] | GI50 [11] | GI50 [12] | GI50 [13] | GI50 [14] | GI50 [15] | GI50 [16] | GI50 [17] | GI50 [18] | GI50 [19] | GI50 [20]
1 | Cc1nnc(N/N=C(/C(=O)C(C#N)c2ccccc2)C(C#N)c2ccccc2)n1N (centres undefined) | 1.01 µM (active) | > 60.3 µM (inactive) | 3.62 µM (inactive) | 1.54 µM (inactive) | 3.73 µM (inactive) | 5.25 µM (inactive) | > 58.9 µM (inactive) | 16.8 µM (inactive) | 32.3 µM (inactive) | 24.4 µM (inactive) | > 48.6 µM (inactive) | 12.9 µM (inactive) | 29.8 µM (inactive) | 0.845 µM (active) | 2.46 µM (inactive) | 32.1 µM (inactive) | – | – | – | –
2 | N#Cc1[nH]c(=S)[nH]c1N | > 100 µM (inactive) | > 100 µM (inactive) | > 100 µM (inactive) | > 100 µM (inactive) | > 100 µM (inactive) | > 100 µM (inactive) | > 100 µM (inactive) | – | > 100 µM (inactive) | > 100 µM (inactive) | > 100 µM (inactive) | > 100 µM (inactive) | > 100 µM (inactive) | – | > 100 µM (inactive) | > 100 µM (inactive) | > 100 µM (inactive) | > 100 µM (inactive) | > 100 µM (inactive) | –
3 | COc1ccc(-c2c(C#N)c(S)n(NS(=O)(=O)c3ccc(C)cc3)c(=O)c2C#N)cc1 | 32.6 µM (inactive) | 32.4 µM (inactive) | 20.2 µM (inactive) | 13.9 µM (inactive) | 18.7 µM (inactive) | 15.3 µM (inactive) | 14.6 µM (inactive) | 17.7 µM (inactive) | – | 23.7 µM (inactive) | 14.6 µM (inactive) | – | 15.6 µM (inactive) | 7.06 µM (inactive) | 14.4 µM (inactive) | 44.5 µM (inactive) | 29.4 µM (inactive) | – | – | 17.8 µM (inactive)
4 | NN/C(=N\S(=O)(=O)c1cccc2nsnc12)Nc1ccc(Cl)cc1 | > 100 µM (inactive) | > 100 µM (inactive) | > 100 µM (inactive) | > 100 µM (inactive) | > 100 µM (inactive) | > 100 µM (inactive) | > 100 µM (inactive) | > 100 µM (inactive) | > 100 µM (inactive) | > 100 µM (inactive) | > 100 µM (inactive) | > 100 µM (inactive) | > 100 µM (inactive) | 61 µM (inactive) | > 100 µM (inactive) | > 100 µM (inactive) | > 100 µM (inactive) | – | > 100 µM (inactive) | > 100 µM (inactive)
5 | O=[N+]([O-])c1cc([N+](=O)[O-])c(C(Cl)C(Cl)c2ccccc2)cc1C(Cl)C(Cl)c1ccccc1 (centres undefined) | 2.02 µM (inactive) | 2.34 µM (inactive) | 1.87 µM (inactive) | 1.64 µM (inactive) | 1.69 µM (inactive) | 2 µM (inactive) | 2.46 µM (inactive) | 1.49 µM (inactive) | 3.18 µM (inactive) | 2.64 µM (inactive) | 1.8 µM (inactive) | 1.65 µM (inactive) | 1.84 µM (inactive) | 2.3 µM (inactive) | 1.19 µM (inactive) | 1.71 µM (inactive) | – | – | – | –
6 | O=c1c(O)c(-c2ccccc2)n(O)c2ccc(Cl)cc12 | 23.6 µM (inactive) | 31.3 µM (inactive) | 21.3 µM (inactive) | 11.4 µM (inactive) | 26.5 µM (inactive) | 21.5 µM (inactive) | 29.6 µM (inactive) | 30.8 µM (inactive) | 28.8 µM (inactive) | 36.3 µM (inactive) | 20 µM (inactive) | 34.7 µM (inactive) | 24.5 µM (inactive) | 32.7 µM (inactive) | 10.9 µM (inactive) | 29.9 µM (inactive) | – | – | – | –
7 | CC(C)c1cc(OCC(O)CO)cc(C(C)C)c1 (centres undefined) | > 100 µM (inactive) | > 100 µM (inactive) | > 100 µM (inactive) | > 100 µM (inactive) | > 100 µM (inactive) | > 100 µM (inactive) | > 100 µM (inactive) | > 100 µM (inactive) | > 100 µM (inactive) | > 100 µM (inactive) | > 100 µM (inactive) | > 100 µM (inactive) | > 100 µM (inactive) | > 100 µM (inactive) | > 100 µM (inactive) | > 100 µM (inactive) | – | – | – | –
8 | O=C(CC(C(=O)c1ccsc1)c1ccc2c(c1)OCO2)c1ccccc1 (centres undefined) | 94 µM (inactive) | > 100 µM (inactive) | > 100 µM (inactive) | > 100 µM (inactive) | > 100 µM (inactive) | – | > 100 µM (inactive) | > 100 µM (inactive) | > 100 µM (inactive) | > 100 µM (inactive) | > 100 µM (inactive) | 0.209 µM (active) | > 100 µM (inactive) | > 100 µM (inactive) | > 100 µM (inactive) | > 100 µM (inactive) | 88.3 µM (inactive) | > 100 µM (inactive) | > 100 µM (inactive) | –
9 | CCOC(=N)CC(=O)Nc1ccccc1CC | > 100 µM (inactive) | > 100 µM (inactive) | > 100 µM (inactive) | > 100 µM (inactive) | > 100 µM (inactive) | > 100 µM (inactive) | > 100 µM (inactive) | > 100 µM (inactive) | > 100 µM (inactive) | > 100 µM (inactive) | > 100 µM (inactive) | > 100 µM (inactive) | > 100 µM (inactive) | > 100 µM (inactive) | > 100 µM (inactive) | > 100 µM (inactive) | – | – | – | –
10 | c1ccc(C2CC(N3CCOCC3)=Nc3ccccc3N2)cc1 (centres undefined) | > 100 µM (inactive) | > 100 µM (inactive) | > 100 µM (inactive) | – | 58.2 µM (inactive) | > 100 µM (inactive) | 93.8 µM (inactive) | > 100 µM (inactive) | – | > 100 µM (inactive) | > 100 µM (inactive) | > 100 µM (inactive) | > 100 µM (inactive) | 70.6 µM (inactive) | > 100 µM (inactive) | > 100 µM (inactive) | – | 54.3 µM (inactive) | > 100 µM (inactive) | > 100 µM (inactive)
11 | CC(C)(C)C#C[P+](c1ccccc1)(c1ccccc1)c1ccccc1 | 0.152 µM (active) | 1.43 µM (inactive) | 0.185 µM (active) | 0.328 µM (active) | 0.0498 µM (active) | 0.409 µM (active) | 0.578 µM (active) | 0.225 µM (active) | 0.149 µM (active) | 0.211 µM (active) | 0.373 µM (active) | 0.353 µM (active) | 0.297 µM (active) | 0.197 µM (active) | 0.177 µM (active) | 0.804 µM (active) | – | – | – | –
12 | COc1ccc2nc3c(c(NCCCN(C)C)c2c1)CCCC3 | 10.3 µM (inactive) | 26.1 µM (inactive) | 15 µM (inactive) | 12.8 µM (inactive) | 2.25 µM (inactive) | 17.3 µM (inactive) | 19.3 µM (inactive) | 13.3 µM (inactive) | 2.42 µM (inactive) | 4.43 µM (inactive) | 16.8 µM (inactive) | 17.1 µM (inactive) | 16.8 µM (inactive) | 3.4 µM (inactive) | 4.74 µM (inactive) | 11.9 µM (inactive) | – | – | – | –
